pIC50: −log10 of the molar value.
Experiments:
[1] = target: T1, Peroxisome proliferator-activated receptor gamma (Homo sapiens, UniProt P37231); test: Antagonist activity at PPAR gamma LBD (203 to 476 residues) (unknown origin) expressed in HEK293T cells co-transfected with pCMV-GAL4-PPARgamma-LBD-SV40-Renilla-luciferase assessed as reduction of rosiglitazone induced PPAR-gamma activation incubated for 24 hrs by dural-luciferase reporter assay; format: cell-based
T1 sequence (P37231 whole entry): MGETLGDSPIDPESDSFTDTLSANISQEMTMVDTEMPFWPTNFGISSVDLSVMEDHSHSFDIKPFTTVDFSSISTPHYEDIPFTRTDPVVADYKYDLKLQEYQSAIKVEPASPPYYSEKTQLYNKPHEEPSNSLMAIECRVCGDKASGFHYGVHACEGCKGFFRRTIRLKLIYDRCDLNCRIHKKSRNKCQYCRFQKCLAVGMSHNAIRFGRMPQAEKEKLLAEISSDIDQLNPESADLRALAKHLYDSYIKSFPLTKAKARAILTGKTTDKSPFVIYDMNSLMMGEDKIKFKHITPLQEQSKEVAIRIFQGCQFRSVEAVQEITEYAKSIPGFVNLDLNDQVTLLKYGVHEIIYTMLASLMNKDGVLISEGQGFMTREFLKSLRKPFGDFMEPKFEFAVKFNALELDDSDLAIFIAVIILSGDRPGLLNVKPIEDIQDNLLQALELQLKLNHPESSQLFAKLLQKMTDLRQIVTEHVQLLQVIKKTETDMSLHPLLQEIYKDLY

[2] = system: BMDM; test: Cytotoxicity against mouse Bone marrow macrophage at 10 uM measured after 72 hrs by MTT assay; format: toxicity, cell-based
[3] = system: BMDM; test: Inhibition of osteoclastogenesis in C57BL/6J mouse Bone marrow macrophage cells assessed as inhibition of RANKL-stimulated osteoclast formation measured after 6 days by tartrate-resistant acid phosphatase (TRAP) staining assay; details: 144 h
[4] = system: BMDM; test: cells; details: Mus musculus, 144 h, read-out: INH
Description: Inhibition of osteoclastogenesis in C57BL/6J mouse Bone marrow macrophage cells assessed as inhibition of RANKL-stimulated osteoclast formation at 10 uM measured after 6 days by tartrate-resistant acid phosphatase (TRAP) staining assay relative to control

Row | SMILES | pIC50 [1] | Activity [2] | pIC50 [3] | inhibition at 10 µM [4]
1 | C/C=C(\C)C(=O)O[C@@H](C[C@@]1(C)[C@H](C)C[C@H](OC(C)=O)[C@]2(COC(C)=O)[C@@H]1[C@H](OC(C)=O)CC[C@]21CO1)C1=CC(=O)OC1 [AJUGANIPPONIN A] | 4.94 | Non-Toxic | – | –
2 | C/C=C(\C)C(=O)OC[C@]12C(=O)CCC[C@@H]1[C@@](C)(CCC1=CC(=O)OC1)[C@H](C)C[C@@H]2OC(C)=O | – | Non-Toxic | – | –
3 | C/C=C(\C)C(=O)O[C@@H](C[C@@]1(C)[C@H](C)C[C@H](OC(C)=O)[C@]2(COC(C)=O)[C@@H]1[C@H](OC(=O)/C(C)=C/C)CC[C@]21CO1)C1=CC(=O)OC1 [AJUGATAKASIN A] | – | Non-Toxic | – | –
4 | COC(=O)[C@@H]1CCC[C@@H]2[C@@](C)(C[C@@H]3OC(=O)C=C3CO)[C@H](C)C[C@H](O)[C@]21C | – | Non-Toxic | – | –
5 | C/C=C(\C)C(=O)OC[C@@]12C(=O)C[C@@H](C)[C@](C)(CCC3=CC(=O)OC3)[C@H]1CCC[C@]21CO1 | 5.69 | Non-Toxic | 6.08 | –
6 | COC(=O)[C@@H]1CC[C@@H](O)[C@@H]2[C@@](C)(C[C@H](O)C3=CC(=O)OC3)[C@H](C)C[C@H](O)[C@]21C | – | Non-Toxic | – | –
7 | C[C@@H]1C[C@H](O)[C@@]2(COC(=O)/C=C/c3ccc(F)cc3)C(=O)CCC[C@@H]2[C@@]1(C)CCC1=CC(=O)OC1 | – | Non-Toxic | – | –
8 | COC(=O)[C@@H]1CCC[C@@H]2[C@@](C)(C[C@H](O)C3=CC(=O)OC3)[C@H](C)C[C@H](O)[C@]21C | – | Non-Toxic | – | –
9 | C/C=C(\C)C(=O)O[C@@H](C[C@@]1(C)[C@H](C)C[C@H](O)[C@]2(C)[C@@H]1CCC[C@H]2C(=O)OC)C1=CC(=O)OC1 | – | Non-Toxic | 5.85 | > 50%
10 | C/C=C(\C)C(=O)O[C@@H]1CC[C@]2(CO2)[C@]2(COC(C)=O)[C@@H](OC(C)=O)C[C@@H](C)[C@](C)(C[C@H](OC(=O)C(C)CC)C3=CC(=O)OC3)[C@@H]12 (stereo partly drawn) | – | Non-Toxic | – | –
11 | C/C=C(\C)C(=O)OC[C@@]12[C@H](CCC[C@]13CO3)[C@@](C)(CCC1=CC(=O)OC1)[C@H](C)C[C@@H]2O | – | Non-Toxic | – | –
12 | C[C@@H]1C[C@H](O)[C@@]2(COC(=O)/C=C/c3ccc(C(F)(F)F)cc3)C(=O)CCC[C@@H]2[C@@]1(C)CCC1=CC(=O)OC1 | – | Non-Toxic | – | –
13 | C/C=C(\C)C(=O)OC[C@@]12[C@@H](OC(C)=O)C[C@@H](C)[C@](C)(CCC3=CC(=O)OC3)[C@H]1CCC[C@H]2C(=O)O | – | Non-Toxic | – | –
14 | C/C=C(\C)C(=O)OC[C@@]12[C@@H](OC(C)=O)C[C@@H](C)[C@](C)(C[C@H](O)C3=CC(=O)OC3)[C@H]1CCC[C@]21CO1 | – | Non-Toxic | – | –
15 | C/C=C(\C)C(=O)O[C@@H]1CC[C@](O)(CCl)[C@]2(COC(C)=O)[C@@H](OC(C)=O)C[C@@H](C)[C@](C)(C[C@H](O)C3=CC(=O)OC3)[C@@H]12 [AJUGAMARIN A1 CHLOROHYDRIN] | – | Non-Toxic | – | –
16 | C/C=C(\C)C(=O)O[C@@H]1CC[C@](O)(CCl)[C@]2(COC(C)=O)[C@@H](OC(C)=O)C[C@@H](C)[C@](C)(C/C=C(/C=O)CC(=O)OC)[C@@H]12 | < 4.70 | Non-Toxic | < 5.00 | –
17 | CCC(C)C(=O)O[C@@H]1CC[C@]2(CO2)[C@]2(COC(C)=O)[C@@H](OC(C)=O)C[C@@H](C)[C@](C)(C[C@H](OC(C)=O)C3=CC(=O)OC3)[C@@H]12 (stereo partly drawn) | – | Non-Toxic | – | –
18 | C/C=C(\C)C(=O)O[C@@H]1CC[C@]2(CO2)[C@]2(COC(C)=O)[C@@H](OC(C)=O)C[C@@H](C)[C@](C)(C[C@H](O)C3=CC(=O)OC3)[C@@H]12 [AJUGAMARIN A1] | – | Non-Toxic | – | –
19 | O=C(Nc1ccncc1)c1cc([N+](=O)[O-])ccc1Cl | – | – | 7.17 | –

Row | SMILES | pIC50 [1] | Activity [2] | pIC50 [3] | inhibition at 10 µM [4]
20 | C[C@@H]1C[C@H](O)[C@@]2(CO)C(=O)CCC[C@@H]2[C@@]1(C)CCC1=CC(=O)OC1 | < 4.70 | Non-Toxic | < 5.00 | –
21 | C/C=C(\C)C(=O)OC[C@@]12[C@@H](OC(C)=O)C[C@@H](C)[C@](C)(CCC3=CC(=O)OC3)[C@H]1CCC[C@]2(O)COC(C)=O | < 4.70 | Non-Toxic | 5.21 | –
22 | CC(=O)O[C@H]1C[C@@H](C)[C@](C)(CCC2=CC(=O)OC2)[C@H]2CCCC(=O)[C@]12CO | < 4.70 | Non-Toxic | < 5.00 | –
23 | C[C@@H]1C[C@H](O)[C@@]23COC[C@@H]2CCC[C@@H]3[C@@]1(C)CCC1=CC(=O)OC1 | – | Non-Toxic | – | –
24 | CC(=O)OC[C@@]12[C@@H](OC(C)=O)C[C@@H](C)[C@](C)(C[C@H](OC(C)=O)C3=CC(=O)OC3)[C@H]1[C@H](OC(C)=O)CC[C@]21CO1 [AJUGAPANTIN A] | – | Non-Toxic | – | –
25 | C/C=C(\C)C(=O)OC[C@@]12C(=O)C[C@@H](C)[C@](C)(CCC3=CC(=O)OC3)[C@H]1CCC[C@]2(O)CCl | – | Toxic | – | –
26 | NCCCC(O)(P(=O)(O)O)P(=O)(O)O [ALENDRONIC ACID] | – | – | 5.37 | > 50%
27 | C/C=C(\C)C(=O)O[C@@H]1CC[C@]2(CO2)[C@]2(COC(C)=O)[C@@H](OC(C)=O)C[C@@H](C)[C@](C)(CC(=O)C3=CC(=O)OC3)[C@@H]12 | < 4.70 | Non-Toxic | < 5.00 | –
28 | C/C=C(\C)C(=O)OC[C@]12[C@H]3CCC[C@@]1(O)CO[C@@]2(O)C[C@H](C)[C@@]3(C)CCC1=CC(=O)OC1 | 5.09 | Non-Toxic | 5.98 | –
29 | C[C@@H]1C[C@H](O)[C@@]2(COC(=O)c3ccc(F)cc3)C(=O)CCC[C@@H]2[C@@]1(C)CCC1=CC(=O)OC1 | – | Non-Toxic | – | –
30 | C/C=C(\C)C(=O)O[C@@H](C[C@@]1(C)[C@H](C)C[C@H](OC(C)=O)[C@]2(COC(C)=O)[C@@H]1CCC[C@]2(O)CCl)C1=CC(=O)OC1 | – | Non-Toxic | – | –
31 | C[C@@H]1C[C@H](O)[C@@]2(COC(=O)c3ccc(N(C)C)cc3)C(=O)CCC[C@@H]2[C@@]1(C)CCC1=CC(=O)OC1 | – | Non-Toxic | 6.51 | –
32 | C[C@@H]1C[C@H](O)[C@@]2(COC(=O)c3ccc(C(F)(F)F)cc3)C(=O)CCC[C@@H]2[C@@]1(C)CCC1=CC(=O)OC1 | – | Non-Toxic | – | –
33 | C/C=C(\C)C(=O)O[C@@H]1CC[C@]2(CO2)[C@@]2(COC(C)=O)[C@H]1[C@@](C)(C[C@H](OC(C)=O)C1=CC(=O)OC1)[C@H](C)C[C@@H]2O | – | Non-Toxic | – | –
34 | CCC(C)C(=O)O[C@@H]1CC[C@]2(CO2)[C@]2(COC(C)=O)[C@@H](OC(C)=O)C[C@@H](C)[C@](C)(C[C@H](O)C3=CC(=O)OC3)[C@@H]12 (stereo partly drawn) [DIHYDROAJUGAMARIN] | – | Non-Toxic | – | –
35 | CC(=O)OC[C@@]12[C@@H](OC(C)=O)C[C@@H](C)[C@](C)(C[C@H](O)C3=CC(=O)OC3)[C@H]1CCC[C@]21CO1 [AJUGALIDE C] | – | Non-Toxic | – | –
36 | C/C=C(\C)C(=O)O[C@@H]1CC[C@]2(CO2)[C@]2(COC(C)=O)[C@@H](OC(C)=O)C[C@@H](C)[C@](C)(C[C@H](OC(C)=O)C3=CC(=O)OC3)[C@@H]12 [AJUGAMARIN A2] | – | Non-Toxic | – | –
37 | C/C=C(\C)C(=O)OC[C@]12C(=O)CCC[C@@H]1[C@@](C)(CCC1=CC(=O)OC1)[C@H](C)CC2=O | 4.88 | Non-Toxic | 5.57 | –
